Measured values taken from patent publication EP1561465A2, “Methods of use of fluoroquinolone compounds against bacteria” (LG Life Sciences, Ltd., priority 1999, dated 2001).
Converted amounts (≈) assume the structure as drawn. Where two headings read alike, the source gives them in different places.

How the values were obtained:
Assay type in all cases: cell-based
[1] = system: Streptococcus pneumoniae; assay: MIC by agar dilution (NCCLS), 411 isolates Buenos Aires 1998-99; conditions: S. pneumoniae
[2] = system: Haemophilus influenzae; assay: MIC by NCCLS reference broth microdilution, 450 respiratory tract pathogens; conditions: Haemophilus influenzae; for MIC90: read-out: MIC90
[3] = system: Moraxella catarrhalis; assay: as above
[4] = system: Staphylococcus aureus; assay: as above
[5] = system: Klebsiella pneumoniae; assay: as above; conditions: for MIC50 / MIC90: Klebsiella pneumoniae
[6] = Haemophilus influenzae (n = 100)
[7] = β-lactamase positive and erythromycin resistant (n = 10)
[8] = extended spectrum β-lactamase negative (n = 30)
[9] = extended spectrum β-lactamase positive (n = 20)

**Q.** Which results are given for amoxycillin/clavulanate?
**A.** MIC90 ([1]; Penicillin intermediate (n = 17)): 1 µg/mL; MIC90 ([1]; Penicillin resistant (n = 4)): 1 µg/mL; MIC90 ([1]; Penicillin susceptible (n = 69)): 0.016 µg/mL

**Q.** `CO/N=C(\C(=O)N[C@@H]1C(=O)N2C(C(=O)O)=C(CSc3nc(=O)c(=O)[nH]n3C)CS[C@H]12)c1csc(N)n1` [Ceftriaxone, ceftriaxone] was tested. Which MIC90 ([1]; Streptococcus pneumoniae, Penicillin intermediate (n = 17), read-out: MIC90) did it give?
**A.** 1 µg/mL (≈ 1.8 µM)

**Q.** What about the MIC90 ([1]; Streptococcus pneumoniae, Penicillin resistant (n = 4), read-out: MIC90) of the same compound?
**A.** 1 µg/mL (≈ 1.8 µM)

**Q.** What about the MIC90 ([1]; Streptococcus pneumoniae, Penicillin susceptible (n = 69), read-out: MIC90) of the same compound?
**A.** 0.016 µg/mL (≈ 0.0289 µM)

**Q.** `COc1c(N2C[C@@H]3CCCN[C@@H]3C2)c(F)cc2c(=O)c(C(=O)O)cn(C3CC3)c12` [Moxifloxacin, moxifloxacin] was tested. Which MIC [2, 6] did it give?
**A.** 0.0075 to 0.12 µg/mL (≈ 0.0187 to 0.299 µM)

**Q.** And the MIC50 [2, 6]?
**A.** 0.03 µg/mL (≈ 0.0747 µM)

**Q.** What about the MIC90 [2, 6] of the same compound?
**A.** 0.06 µg/mL (≈ 0.149 µM)

**Q.** What about the MIC ([2]; β-lactamase negative (n = 80)) of the same compound?
**A.** 0.0075 to 0.06 µg/mL (≈ 0.0187 to 0.149 µM)

**Q.** What about the MIC50 ([2]; β-lactamase negative (n = 80)) of the same compound?
**A.** 0.03 µg/mL (≈ 0.0747 µM)

**Q.** What about the MIC90 ([2]; β-lactamase negative (n = 80)) of the same compound?
**A.** 0.06 µg/mL (≈ 0.149 µM)

**Q.** And the MIC ([2]; β-lactamase positive (n = 20))?
**A.** 0.0075 to 0.06 µg/mL (≈ 0.0187 to 0.149 µM)

**Q.** And the MIC50 ([2]; β-lactamase positive (n = 20))?
**A.** 0.015 µg/mL (≈ 0.0374 µM)

**Q.** And the MIC90 ([2]; β-lactamase positive (n = 20))?
**A.** 0.015 µg/mL (≈ 0.0374 µM)

**Q.** What about the MIC ([3]; Moraxella catarrhalis (n = 50)) of the same compound?
**A.** 0.00375 to 0.12 µg/mL (≈ 0.00934 to 0.299 µM)

**Q.** What about the MIC50 ([3]; Moraxella catarrhalis (n = 50)) of the same compound?
**A.** 0.06 µg/mL (≈ 0.149 µM)

**Q.** What about the MIC90 ([3]; Moraxella catarrhalis (n = 50)) of the same compound?
**A.** 0.06 µg/mL (≈ 0.149 µM)

**Q.** What about the MIC ([3]; β-lactamase negative (n = 13)) of the same compound?
**A.** 0.00375 to 0.12 µg/mL (≈ 0.00934 to 0.299 µM)

**Q.** And the MIC50 ([3]; β-lactamase negative (n = 13))?
**A.** 0.015 µg/mL (≈ 0.0374 µM)

**Q.** And the MIC90 ([3]; β-lactamase negative (n = 13))?
**A.** 0.06 µg/mL (≈ 0.149 µM)

**Q.** And the MIC ([3]; β-lactamase positive (n = 37))?
**A.** 0.00375 to 0.12 µg/mL (≈ 0.00934 to 0.299 µM)

**Q.** What about the MIC50 ([3]; β-lactamase positive (n = 37)) of the same compound?
**A.** 0.03 µg/mL (≈ 0.0747 µM)

**Q.** What about the MIC90 ([3]; β-lactamase positive (n = 37)) of the same compound?
**A.** 0.06 µg/mL (≈ 0.149 µM)

**Q.** What about the MIC ([4]; Staphylococcus aureus (n = 50)) of the same compound?
**A.** 0.015 to 0.5 µg/mL (≈ 0.0374 to 1.25 µM)

**Q.** What about the MIC50 ([4]; Staphylococcus aureus (n = 50)) of the same compound?
**A.** 0.25 µg/mL (≈ 0.623 µM)

**Q.** What about the MIC90 ([4]; Staphylococcus aureus (n = 50)) of the same compound?
**A.** 0.5 µg/mL (≈ 1.25 µM)

**Q.** And the MIC ([4]; β-lactamase negative (n = 20))?
**A.** 0.06 to 0.5 µg/mL (≈ 0.149 to 1.25 µM)

**Q.** What about the MIC50 ([4]; β-lactamase negative (n = 20)) of the same compound?
**A.** 0.25 µg/mL (≈ 0.623 µM)

**Q.** And the MIC90 ([4]; β-lactamase negative (n = 20))?
**A.** 0.5 µg/mL (≈ 1.25 µM)

**Q.** And the MIC ([4]; β-lactamase positive (n = 20))?
**A.** 0.12 to 0.5 µg/mL (≈ 0.299 to 1.25 µM)

**Q.** And the MIC50 ([4]; β-lactamase positive (n = 20))?
**A.** 0.25 µg/mL (≈ 0.623 µM)

**Q.** What about the MIC90 ([4]; β-lactamase positive (n = 20)) of the same compound?
**A.** 0.5 µg/mL (≈ 1.25 µM)

**Q.** What about the MIC [4, 7] of the same compound?
**A.** 0.12 to 0.5 µg/mL (≈ 0.299 to 1.25 µM)

**Q.** And the MIC50 [4, 7]?
**A.** 0.25 µg/mL (≈ 0.623 µM)

**Q.** What about the MIC90 [4, 7] of the same compound?
**A.** 0.5 µg/mL (≈ 1.25 µM)

**Q.** And the “MIC Range” value ([5]; Klebsiella pneumoniae (n = 50))?
**A.** 0.015 to 1 µg/mL

**Q.** What about the MIC50 ([5]; Klebsiella pneumoniae (n = 50)) of the same compound?
**A.** 0.06 µg/mL (≈ 0.149 µM)

**Q.** What about the MIC90 ([5]; Klebsiella pneumoniae (n = 50)) of the same compound?
**A.** 0.5 µg/mL (≈ 1.25 µM)

**Q.** And the MIC50 [5, 8]?
**A.** 0.06 µg/mL (≈ 0.149 µM)

**Q.** And the MIC90 [5, 8]?
**A.** 0.25 µg/mL (≈ 0.623 µM)

**Q.** What about the MIC50 [5, 9] of the same compound?
**A.** 0.5 µg/mL (≈ 1.25 µM)

**Q.** And the MIC90 [5, 9]?
**A.** 1 µg/mL (≈ 2.49 µM)

**Q.** And the “MIC Range” value [5, 8]?
**A.** 0.015 to 0.5 µg/mL

**Q.** What about the “MIC Range” value [5, 9] of the same compound?
**A.** 0.06 to 1 µg/mL
